In ChEMBL document CHEMBL1201862, “PubChem BioAssay data set” (2004):
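The compound was tested at five concentrations on cells cultured in 96-well plates, with a 48-hour exposure period. Here, GI50 denotes the concentration required for 50% inhibition of growth.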 Active and inactive are the calls of the source. Cut-off read from the data, not from the text of the source: active = GI50 up to about 1.1 µM and inactive = higher.

Key:
Test in all cases: NCI anticancer screen, dose series, 48 h
[1] = system: BT-549
[2] = system: DU-145
[3] = system: Hs-578T
[4] = system: MDA-MB-231
[5] = system: MDA-N
[6] = system: PC-3
[7] = system: T47D

Measured: GI50

CCOC(=O)c1c(NC(=S)NCc2ccccc2)sc2c1CCN(C)C2
inactive: [1] 59 µM | [2] 64.1 µM | [3] 64.4 µM | [4] 47.8 µM | [5] > 100 µM | [6] 35.4 µM | [7] 41.5 µM
